Measured values published in patent US10294202B2, “Pyrrolidinones as herbicides” (FMC Corporation, priority 2013, dated 2019).
Where two headings read alike, the source gives them in different places.

How the values were obtained:
kochia [1] = assay: Test A pre-/postemergence herbicide test; assay type: in vivo, Kochia scoparia; details: for Plant response rating, Kochia: 0 to 100 scale
Outline: (§1)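 Planted in loam–sand blend; treated the same day preemergence by directed soil spray, while separately grown plants at one- to two-leaf stage got postemergence spray. Compared visually with untreated controls after approximately 10 days; 100 means complete control.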

corn = assay: Test A pre-/postemergence herbicide test; assay type: in vivo, Zea mays; details: for Corn plant response rating (crop injury, 0 = no effect, 100 = complete kill) at 1000 g/ha: Zea mays, 240 h, 1000 g ai/ha
Outline: as §1

ryegrass, Italian = assay: Test C pre-/postemergence herbicide test; assay type: in vivo, Lolium multiflorum
Outline: (§2)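 Test compounds, formulated in a surfactant-containing non-phytotoxic solvent blend, are applied to seeded loam/sand soil (preemergence) and to young plants at the 1- to 4-leaf stage in peat-based medium (postemergence). Plants stay 13 to 15 days under greenhouse conditions, then are scored visually relative to controls, 0 = no effect, 100 = complete control.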

johnsongrass = assay: Test C pre-/postemergence herbicide test; assay type: in vivo, Sorghum halepense
Outline: as §2

morningglory = assay: Test C pre-/postemergence herbicide test; assay type: in vivo, Ipomoea coccinea
Outline: as §2

barnyardgrass = assay: Test C pre-/postemergence herbicide test; assay type: in vivo, Echinochloa crus-galli
Outline: as §2

kochia [2] = assay: Test C pre-/postemergence herbicide test; assay type: in vivo, Kochia scoparia
Outline: as §2

chickweed = assay: Test C postemergence herbicide test; assay type: in vivo, Stellaria media
Source text: At the same time, plants selected from these crop and weed species and also barley (winter barley, Hordeum vulgare), […]), chickweed (common chickweed, Stellaria media), deadnettle (henbit deadnettle, Lamium amplexicaule), and canarygrass (littleseed canarygrass, Phalaris minor) were planted in pots containing Redi-Earth® planting medium (Scotts Company, 14111 Scottslawn Road, Marysville, Ohio 43041) comprising spaghnum peat moss, vermiculite, wetting agent and starter nutrients and treated with postemergence applications of test chemicals formulated in the same manner. Plants ranged in height from 2 to 18 cm (1- to 4-leaf stage) for postemergence treatments. Treated plants and controls were maintained in a greenhouse for 13 to 15 days, after which time all species were compared to controls and visually evaluated. Plant response ratings, summarized in Table C, are based on a scale of 0 to 100 where 0 is no effect and 100 is complete control. A dash (-) response means no test result.

crabgrass, large = assay: Test A pre-/postemergence herbicide test; assay type: in vivo, Digitaria sanguinalis; details: for pest or weed control at 1000 g/ha: Digitaria sanguinalis, 240 h, 1000 g ai/ha, read-out: Plant response rating, Crabgrass, Large
Outline: as §1

[3] = Postemergence, 31 g ai/ha, scale 0 to 100 (0 no effect, 100 complete control)
[4] = Postemergence, 62 g ai/ha, scale 0 (no effect) to 100 (complete control)
[5] = Postemergence, 125 g ai/ha, scale 0 to 100 (0 no effect, 100 complete control)
[6] = Postemergence, 250 g ai/ha, scale 0 to 100 (0 no effect, 100 complete control)
[7] = Preemergence, 31 g ai/ha, scale 0 to 100, 0 is no effect and 100 is complete control
[8] = Preemergence, 62 g ai/ha, scale 0 to 100 (0 no effect, 100 complete control)
[9] = Preemergence, 125 g ai/ha, scale 0 to 100 (0 no effect, 100 complete control)
[10] = Preemergence, 62 g ai/ha, scale 0 to 100
[11] = 125 g ai/ha, scale 0 to 100 (0 no effect, 100 complete control)
[12] = 250 g ai/ha, scale 0 to 100 (0 no effect, 100 complete control)
[13] = post-emergence, Postemergence, 0 to 100 scale (0 no effect, 100 complete control)
[14] = pre-emergence, Preemergence, visual rating on 0 to 100 scale (0 no effect, 100 complete control), approx. 10 days
[15] = Postemergence, 31 g ai/ha, scale 0 (no effect) to 100 (complete control)
[16] = Postemergence, 62 g ai/ha, scale 0 to 100 (0 no effect, 100 complete control)
[17] = 31 g ai/ha, scale 0 (no effect) to 100 (complete control)
[18] = 62 g ai/ha, scale 0 to 100 (0 no effect, 100 complete control)
[19] = Postemergence, 125 g ai/ha, 0 to 100 scale, 0 no effect, 100 complete control
[20] = Postemergence, 500 g ai/ha, 0 to 100 scale (0 no effect, 100 complete control)
[21] = Preemergence, 125 g ai/ha, visual rating on 0 to 100 scale (0 no effect, 100 complete control)
[22] = preemergence, 500 g ai/ha, 0 to 100 scale
[23] = Postemergence, 16 g ai/ha, scale 0 to 100 (0 no effect, 100 complete control)
[24] = Preemergence, 16 g ai/ha, scale 0 to 100

O=C1NC[C@H](c2cccc(C(F)(F)F)c2)[C@H]1C(=O)Nc1cccc(F)c1F [Compound 206]
20: Plant response rating (scale of 0 to 100), Ryegrass, Italian (ryegrass, Italian; Preemergence, 250 g ai/ha) | Plant response rating, Morningglory (morningglory; [3]) | Plant response rating, Morningglory (morningglory; [4])
70: Plant response rating, Kochia (kochia [1]; 125 g ai/ha, visual rating, 0 no effect, 100 complete control, approximately 10 days, preemergence) | Plant response rating, Kochia (kochia [1]; Postemergence, 125 g ai/ha, 0 is no effect, 100 is complete control) | Kochia plant response rating (0 to 100 scale, 0 is no effect, 100 is complete control) (kochia [1]; Postemergence, 500 g ai/ha) | Plant response rating, Kochia (kochia [2]; [4]) | Plant response rating, Kochia (kochia [2]; [6])
35: Plant response rating, Ryegrass, Italian (ryegrass, Italian; [6]) | Plant response rating, Johnsongrass (johnsongrass; [6]) | Plant response rating, Morningglory (morningglory; [5])
80: Plant response rating, Kochia (kochia [1]; preemergence, 500 g ai/ha, 0 is no effect and 100 is complete control) | Corn plant response rating (0 to 100 scale, 0 is no effect, 100 is complete control) (corn; Postemergence, 500 g ai/ha) | Plant response rating, Barnyardgrass (barnyardgrass; [5]) | Plant response rating, Barnyardgrass (barnyardgrass; [6])
10: Plant response rating, Ryegrass, Italian (ryegrass, Italian; [5]) | Plant response rating (scale of 0 to 100), Morningglory (morningglory; Preemergence, 250 g ai/ha)
60: Plant response rating, Corn (corn; Postemergence, 125 g ai/ha, 0 to 100 scale, 0 is no effect, 100 is complete control) | Plant response rating, Chickweed (chickweed; 62 g ai/ha, scale 0 (no effect) to 100 (complete control))
25: Johnsongrass plant response rating (johnsongrass; [7]) | Plant response rating, Barnyardgrass (barnyardgrass; [3])
85: Plant response rating, Johnsongrass (johnsongrass; [9]) | Plant response rating (scale of 0 to 100), Johnsongrass (johnsongrass; Preemergence, 250 g ai/ha) | Plant response rating, Chickweed (chickweed; 31 g ai/ha, scale 0 to 100 (0 no effect, 100 complete control)) | Plant response rating, Chickweed (chickweed; [11]) | Plant response rating, Chickweed (chickweed; [12])
95: Plant response rating, Barnyardgrass (barnyardgrass; [9]) | Plant response rating (scale of 0 to 100; 0 is no effect, 100 is complete control), Barnyardgrass (barnyardgrass; Preemergence, 250 g ai/ha)
0: Plant response rating, Ryegrass, Italian (ryegrass, Italian; [3]) | Plant response rating, Ryegrass, Italian (ryegrass, Italian; [4]) | Plant response rating, Johnsongrass (johnsongrass; [3]) | Plant response rating, Johnsongrass (johnsongrass; [4]) | Plant response rating, Johnsongrass (johnsongrass; [5]) | Morningglory plant response rating (morningglory; [7]) | Morningglory plant response rating (morningglory; [8]) | Plant response rating, Morningglory (morningglory; [9])
40: Ryegrass, Italian plant response rating (ryegrass, Italian; [8]) | Plant response rating, Barnyardgrass (barnyardgrass; [4])
50: Plant response rating, Kochia (kochia [2]; [3])
45: Plant response rating, Ryegrass, Italian (ryegrass, Italian; [9]) | Plant response rating, Morningglory (morningglory; [6])
30: Ryegrass, Italian plant response rating (ryegrass, Italian; [7]) | Plant response rating, Kochia (kochia [2]; [5])
65: Johnsongrass plant response rating (johnsongrass; [8])
90: Barnyardgrass plant response rating (barnyardgrass; [7]) | Plant response rating, Barnyardgrass (barnyardgrass; [10])

O=C1NCC(c2ccc(F)c(F)c2)C1C(=O)Nc1cccc(F)c1F (stereo not drawn) [Compound 17, N-(2,3-difluorophenyl)-4-(3,4-difluorophenyl)-2-oxo-3-pyrrolidinecarboxamide]
10: Plant response rating, Chickweed (chickweed; [12])
35: Plant response rating, Ryegrass, Italian (ryegrass, Italian; [9])
60%: Corn plant response rating (crop injury, 0 = no effect, 100 = complete kill) at 1000 g/ha (corn; [13]) | Corn plant response rating (crop injury, 0 = no effect, 100 = complete kill) at 1000 g/ha (corn; [14])
90%: pest or weed control at 1000 g/ha (crabgrass, large; [13]) | pest or weed control at 1000 g/ha (crabgrass, large; [14])
50: Plant response rating, Kochia (kochia [2]; [10])
60: Plant response rating, Kochia (kochia [2]; [9])
5: Plant response rating, Ryegrass, Italian (ryegrass, Italian; [6]) | Plant response rating, Ryegrass, Italian (ryegrass, Italian; [10]) | Plant response rating, Johnsongrass (johnsongrass; [10]) | Plant response rating, Kochia (kochia [2]; [6])
0: Plant response rating, Ryegrass, Italian (ryegrass, Italian; [15]) | Plant response rating, Ryegrass, Italian (ryegrass, Italian; [16]) | Plant response rating, Ryegrass, Italian (ryegrass, Italian; [5]) | Plant response rating, Johnsongrass (johnsongrass; [15]) | Plant response rating, Johnsongrass (johnsongrass; [16]) | Plant response rating, Johnsongrass (johnsongrass; [5]) | Plant response rating, Johnsongrass (johnsongrass; [6]) | Plant response rating, Morningglory (morningglory; [15]) | Plant response rating, Morningglory (morningglory; [16]) | Plant response rating, Morningglory (morningglory; [5]) | Plant response rating, Morningglory (morningglory; [6]) | Plant response rating, Morningglory (morningglory; [10]) | Plant response rating, Kochia (kochia [2]; [15]) | Plant response rating, Kochia (kochia [2]; [16]) | Plant response rating, Kochia (kochia [2]; [5]) | Plant response rating, Chickweed (chickweed; [17]) | Plant response rating, Chickweed (chickweed; [18]) | Plant response rating, Chickweed (chickweed; [11])
65: Plant response rating, Johnsongrass (johnsongrass; [9])

O=C1NCC(c2cc(F)c(F)c(F)c2)C1C(=O)Nc1cccc(F)c1F (stereo not drawn) [Compound 48]
80: Plant response rating, Crabgrass, Large (crabgrass, large; [19]) | Plant response rating, Crabgrass, Large (crabgrass, large; [20])
15: Plant response rating, Morningglory (morningglory; [9])
90: Crabgrass, Large plant response rating (crabgrass, large; [21]) | Plant response rating, Crabgrass, Large (crabgrass, large; [22])
0: Plant response rating, Corn (corn; [19]) | Corn plant response rating (corn; [21]) | Plant response rating, Ryegrass, Italian (ryegrass, Italian; [23]) | Plant response rating, Ryegrass, Italian (ryegrass, Italian; [15]) | Plant response rating, Ryegrass, Italian (ryegrass, Italian; [16]) | Plant response rating, Ryegrass, Italian (ryegrass, Italian; [5]) | Plant response rating, Ryegrass, Italian (ryegrass, Italian; [10]) | Plant response rating, Ryegrass, Italian (ryegrass, Italian; [9]) | Plant response rating, Ryegrass, Italian (ryegrass, Italian; [24]) | Plant response rating, Johnsongrass (johnsongrass; [23]) | Plant response rating, Johnsongrass (johnsongrass; [15]) | Plant response rating, Johnsongrass (johnsongrass; [16]) | Plant response rating, Johnsongrass (johnsongrass; [5]) | Plant response rating, Johnsongrass (johnsongrass; [24]) | Plant response rating, Morningglory (morningglory; [10]) | Plant response rating, Morningglory (morningglory; [24]) | Plant response rating, Kochia (kochia [2]; [23]) | Plant response rating, Kochia (kochia [2]; [24]) | Plant response rating, Chickweed (chickweed; 16 g ai/ha, scale 0 to 100 (0 no effect, 100 complete control)) | Plant response rating, Chickweed (chickweed; [17])
50: Plant response rating, Corn (corn; [20])
20: Plant response rating, Corn (corn; [22]) | Plant response rating, Johnsongrass (johnsongrass; [9]) | Plant response rating, Kochia (kochia [2]; [5])
10: Plant response rating, Johnsongrass (johnsongrass; [10]) | Plant response rating, Morningglory (morningglory; [23]) | Plant response rating, Morningglory (morningglory; [15]) | Plant response rating, Morningglory (morningglory; [16]) | Plant response rating, Morningglory (morningglory; [5]) | Plant response rating, Kochia (kochia [2]; [15]) | Plant response rating, Kochia (kochia [2]; [16]) | Plant response rating, Kochia (kochia [2]; [10]) | Plant response rating, Kochia (kochia [2]; [9])
30: Plant response rating, Chickweed (chickweed; [18]) | Plant response rating, Chickweed (chickweed; [11])
